Source: PubChem BioAssay AID256 (DTP/NCI, 2004)
“And” between values parts separate entries of the source, which are not always exact repeats. Equal entries are not always repeated. Inconclusive results and toxic doses are left out. The calls were made as follows: active = survival T/C of 150% or more; inactive = T/C below 125% in these data.

Test system: CD2F1 mice, L1210 leukemia ip, survival T/C
Test: NCI In Vivo Anticancer Drug Screen. Data for tumor model L1210 Leukemia (intraperitoneal) in CD2F1 (CDF1) mice
Conditions: higher = longer survival
Outline: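 Ratio T/C, where T is the treated-group value and C the vehicle-dosed control value, from mice implanted with a transplantable tumor.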

[1] = endpoint: mean survival time, dose: 100.0 mg/kg/injection, schedule: Q04DX003 (ip), vehicle: saline with Tween-80
[2] = endpoint: mean survival time, dose: 200.0 mg/kg/injection, schedule: Q04DX003 (ip), vehicle: saline with Tween-80
[3] = endpoint: mean survival time, dose: 400.0 mg/kg/injection, schedule: Q04DX003 (ip), vehicle: saline with Tween-80
[4] = endpoint: mean survival time, dose: 100.0 mg/kg/injection, schedule: Q01DX009 (ip), vehicle: saline with Tween-80
[5] = endpoint: mean survival time, dose: 200.0 mg/kg/injection, schedule: Q01DX009 (ip), vehicle: saline with Tween-80
[6] = endpoint: mean survival time, dose: 400.0 mg/kg/injection, schedule: Q01DX009 (ip), vehicle: saline with Tween-80

Measured: T/C

Cc1cc(CC(O)(C(F)(F)F)C(F)(F)F)cc(C(=O)O)n1
inactive: [1] 98 % of control | [2] 107 % of control | [3] 87 % of control

O=C(O)C1C2CC3OC(=O)C1C3C2O (stereo not given)
inactive: [4] 91 % of control | [5] 93 % of control | [6] 96 % of control

O=C(O)C(F)(F)F.O=C(O)C(F)(F)F.O=C(O)C(F)(F)F.O=C(O)C(F)(F)F.[Rh].[Rh]
inactive: endpoint: mean survival time, dose: 12.5 mg/kg/injection, schedule: Q01DX009 (ip), vehicle: saline 107 % of control | endpoint: mean survival time, dose: 25.0 mg/kg/injection, schedule: Q01DX009 (ip), vehicle: saline 115 % of control | endpoint: mean survival time, dose: 50.0 mg/kg/injection, schedule: Q01DX009 (ip), vehicle: saline 118 % of control | endpoint: mean survival time, dose: 100.0 mg/kg/injection, schedule: Q01DX009 (ip), vehicle: saline 107 % of control

COc1ccc2cc(O)ccc2c1
inactive: [4] 96 % of control | [1] 104 % of control | [5] 98 % of control | [2] 113 % of control | [6] 100 % of control | [3] 90 % of control

CC1CC1C(=O)O (stereo not given)
inactive: endpoint: mean survival time, dose: 100.0 mg/kg/injection, schedule: Q04DX003 (ip), vehicle: saline 102 % of control | endpoint: mean survival time, dose: 200.0 mg/kg/injection, schedule: Q04DX003 (ip), vehicle: saline 102 % of control

CCOC(=O)C(CCP(=O)(OCC)OCC)NC(=O)c1ccc(N(C)Cc2cnc3nc(N)nc(N)c3n2)cc1 (stereo not given)
inactive: endpoint: median survival time, dose: 0.38 mg/kg/injection, schedule: Q01DX009 (ip), vehicle: saline 101 % of control | endpoint: median survival time, dose: 0.75 mg/kg/injection, schedule: Q01DX009 (ip), vehicle: saline 102 % of control | endpoint: median survival time, dose: 1.5 mg/kg/injection, schedule: Q01DX009 (ip), vehicle: saline 102 % of control | endpoint: median survival time, dose: 3.0 mg/kg/injection, schedule: Q01DX009 (ip), vehicle: saline 102 % of control | endpoint: median survival time, dose: 6.0 mg/kg/injection, schedule: Q01DX009 (ip), vehicle: saline 101 % of control | endpoint: median survival time, dose: 12.0 mg/kg/injection, schedule: Q01DX009 (ip), vehicle: saline 102 % of control

CC[PH+](CC)CC[S-].CC[PH+](CC)CC[S-].[Au+].[Au+]
inactive: endpoint: mean survival time, dose: 2.5 mg/kg/injection, schedule: Q01DX009 (ip), vehicle: Klucel (hydroxypropylcellulose) (HPC) 102 % of control and 107 % of control | endpoint: mean survival time, dose: 5.0 mg/kg/injection, schedule: Q01DX009 (ip), vehicle: Klucel (hydroxypropylcellulose) (HPC) 95 % of control and 106 % of control | endpoint: mean survival time, dose: 10.0 mg/kg/injection, schedule: Q01DX009 (ip), vehicle: Klucel (hydroxypropylcellulose) (HPC) 92 % of control and 109 % of control | endpoint: mean survival time, dose: 20.0 mg/kg/injection, schedule: Q01DX009 (ip), vehicle: Klucel (hydroxypropylcellulose) (HPC) 97 % of control and 109 % of control | endpoint: mean survival time, dose: 40.0 mg/kg/injection, schedule: Q01DX009 (ip), vehicle: Klucel (hydroxypropylcellulose) (HPC) 89 % of control | endpoint: mean survival time, dose: 80.0 mg/kg/injection, schedule: Q01DX009 (ip), vehicle: Klucel (hydroxypropylcellulose) (HPC) 101 % of control

Clc1ccc([PH+](c2ccc(Cl)cc2)c2ccc(Cl)cc2)cc1.Clc1ccc([PH+](c2ccc(Cl)cc2)c2ccc(Cl)cc2)cc1.[Cl][Hg][Cl]
inactive: endpoint: mean survival time, dose: 12.5 mg/kg/injection, schedule: Q01DX009 (ip), vehicle: Klucel (hydroxypropylcellulose) (HPC) 96 % of control | endpoint: mean survival time, dose: 50.0 mg/kg/injection, schedule: Q01DX009 (ip), vehicle: Klucel (hydroxypropylcellulose) (HPC) 104 % of control

Cc1cc2nc3c4ccccc4n(C)c3nc2cc1C
inactive: endpoint: mean survival time, dose: 50.0 mg/kg/injection, schedule: Q01DX009 (sc), vehicle: Klucel (hydroxypropylcellulose) (HPC) 101 % of control | endpoint: mean survival time, dose: 100.0 mg/kg/injection, schedule: Q01DX009 (sc), vehicle: Klucel (hydroxypropylcellulose) (HPC) 104 % of control | endpoint: mean survival time, dose: 200.0 mg/kg/injection, schedule: Q01DX009 (sc), vehicle: Klucel (hydroxypropylcellulose) (HPC) 104 % of control

[Cl][Pt+].[NH-]c1ccccc1C=Nc1ccccc1C=O
inactive: endpoint: median survival time, dose: 11.5 mg/kg/injection, schedule: Q04DX003 (ip), vehicle: saline with Tween-80 100 % of control | endpoint: median survival time, dose: 23.0 mg/kg/injection, schedule: Q04DX003 (ip), vehicle: saline with Tween-80 105 % of control | endpoint: median survival time, dose: 46.0 mg/kg/injection, schedule: Q04DX003 (ip), vehicle: saline with Tween-80 105 % of control | endpoint: median survival time, dose: 92.0 mg/kg/injection, schedule: Q04DX003 (ip), vehicle: saline with Tween-80 97 % of control | endpoint: median survival time, dose: 184.0 mg/kg/injection, schedule: Q04DX003 (ip), vehicle: saline with Tween-80 98 % of control

O=P1(OCCCCCl)NCCCO1 (stereo not given)
inactive: endpoint: mean survival time, dose: 62.5 mg/kg/injection, schedule: Q01DX001 (ip), vehicle: water 103 % of control | endpoint: mean survival time, dose: 125.0 mg/kg/injection, schedule: Q01DX001 (ip), vehicle: water 104 % of control | endpoint: mean survival time, dose: 250.0 mg/kg/injection, schedule: Q01DX001 (ip), vehicle: water 103 % of control | endpoint: mean survival time, dose: 500.0 mg/kg/injection, schedule: Q01DX001 (ip), vehicle: water 108 % of control | endpoint: mean survival time, dose: 750.0 mg/kg/injection, schedule: Q01DX001 (ip), vehicle: water 101 % of control
